This is an account of results in US6727264B1 (Synaptic Pharmaceutical Corporation, priority 2001, dated 2004).

The target in this test is rat MCH-1 (Rattus norvegicus, UniProt P97639). The test is described as follows: Radioligand binding assay at cloned rat MCH1 receptor ([3H] Compound A). The arrangement: host or cells: Peak rapid 293 (Peakr293) cells, transient calcium phosphate transfection, membranes. To be noted: cloned rat MCH1 receptor; 0.08 nM [3H] Compound A; Peakr293 cell membranes; read-out: Ki (nM) rMCH1.
Chain of rat MCH-1 (P97639 whole entry): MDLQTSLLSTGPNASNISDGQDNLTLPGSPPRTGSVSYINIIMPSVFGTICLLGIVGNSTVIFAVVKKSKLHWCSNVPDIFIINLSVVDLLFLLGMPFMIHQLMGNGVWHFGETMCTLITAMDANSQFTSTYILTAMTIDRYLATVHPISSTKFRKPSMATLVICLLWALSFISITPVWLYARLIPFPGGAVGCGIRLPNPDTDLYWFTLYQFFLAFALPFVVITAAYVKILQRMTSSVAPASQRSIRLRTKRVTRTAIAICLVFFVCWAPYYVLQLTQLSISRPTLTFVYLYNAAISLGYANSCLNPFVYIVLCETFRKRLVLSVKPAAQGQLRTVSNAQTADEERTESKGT
Regarding `CC(C)C(=O)Nc1cccc(C2CCN(Cc3ccc4c(ccn4-c4ccc(Cl)cc4)c3)CC2)c1` [Example 838], the inhibitory constant (Ki) (commonly the equilibrium dissociation constant of an inhibitor or competing ligand from its target) was 11.2 nM.
`COc1cccc(-n2ccc3cc(CN4CCC(c5cccc(NC(=O)C(C)C)c5)CC4)ccc32)c1` [Example 839]: the Ki worked out at 62.2 nM.
As for `CCCC(=O)Nc1ccc(C2CCN(CCCCn3ccc4ccccc43)CC2)cc1` [Example 840], the figure is 663 nM; as for `COc1ccccc1-n1ccc2cc(CN3CCC(c4cccc(NC(=O)C(C)C)c4)CC3)ccc21` [Example 841], 25 nM; as for `CC(C)C(=O)Nc1cccc(C2CCN(Cc3ccc4c(ccn4-c4cccc(Cl)c4)c3)CC2)c1` [Example 842], 15.8 nM.
For `COC(=O)c1ccccc1-n1ccc2cc(CN3CCC(c4cccc(NC(=O)C(C)C)c4)CC3)ccc21` [Example 843, METHYL 2-[5-({4-[3-(ISOBUTYRYLAMINO)PHENYL]-1-PIPERIDINYL}METHYL)-1H-INDOL-1-YL]BENZOATE] the value was 15.5 nM.
For `CC(C)C(=O)Nc1cccc(C2CCN(CCCn3ccc4ccccc43)CC2)c1` [Example 844] the value was 37.8 nM; for `CC(C)C(=O)Nc1cccc(C2CCN(Cc3ccc4c(ccn4-c4ccc(C(F)(F)F)cc4)c3)CC2)c1` [Example 845], 43.1 nM.
With `CC(C)C(=O)Nc1cccc(C2CCN(Cc3ccc4c(ccn4-c4ccccc4-c4ccccc4)c3)CC2)c1` [Example 846], the Ki was 18.4 nM.
For `Cc1ccccc1-n1ccc2cc(CN3CCC(c4cccc(NC(=O)C(C)C)c4)CC3)ccc21` [Example 847] the value was 10.2 nM; for `Cc1ccc(-n2ccc3cc(CN4CCC(c5cccc(NC(=O)C(C)C)c5)CC4)ccc32)cc1` [Example 848], 19.1 nM.
As for `CC(C)C(=O)Nc1cccc(C2CCN(Cc3ccc4c(ccn4-c4ccccc4Cl)c3)CC2)c1` [Example 849], the figure is 9.4 nM.
On to `CC(C)C(=O)Nc1cccc(C2CCN(Cc3ccc4c(ccn4-c4cccc(C(F)(F)F)c4)c3)CC2)c1` [Example 850], for which the Ki was 9.5 nM.
As for `CC(C)C(=O)Nc1cccc(C2CCN(Cc3ccc4c(ccn4-c4ccccc4[N+](=O)[O-])c3)CC2)c1` [Example 851], the figure is 27.4 nM.
Regarding `CC(C)C(=O)Nc1cccc(C2CCN(Cc3ccc4c(ccn4-c4ccccc4F)c3)CC2)c1` [Example 852], the Ki was found to be 14.5 nM.
As for `CC(C)C(=O)Nc1cccc(C2CCN(Cc3ccc4c(ccn4-c4cccc5ccccc45)c3)CC2)c1` [Example 853], the figure is 48 nM.
On to `CC(C)C(=O)Nc1cccc(C2CCN(Cc3ccc4c(ccn4-c4cccc(Cl)c4Cl)c3)CC2)c1` [Example 854], for which the inhibitory constant (Ki) was found to be 13.8 nM.
In the case of `CC(C)C(=O)Nc1cccc(C2CCN(Cc3cccc4ccn(-c5cccc(Cl)c5Cl)c34)CC2)c1` [Example 855], the Ki is 256 nM.
As for `COc1cccc(-n2ccc3c(CN4CCC(c5cccc(NC(=O)C(C)C)c5)CC4)cccc32)c1` [Example 856], the figure is 123 nM; as for `CC(C)C(=O)Nc1cccc(C2CCN(Cc3cccc4c3ccn4-c3cccc(Cl)c3Cl)CC2)c1` [Example 857], 89.8 nM.
For `CC(C)C(=O)Nc1cccc(C2CCN(Cc3cccc4c3ccn4-c3cccc(Cl)c3)CC2)c1` [Example 858] the value was 44.9 nM; for `Cc1cccc(-n2ccc3c(CN4CCC(c5cccc(NC(=O)C(C)C)c5)CC4)cccc32)c1` [Example 859], 321 nM.
In the case of `COc1cccc(-n2ccc3cccc(CN4CCC(c5cccc(NC(=O)C(C)C)c5)CC4)c32)c1` [Example 860], the Ki was 40.5 nM.
As for `CC(C)C(=O)Nc1cccc(C2CCN(Cc3cccc4c3ccn4-c3cccc(C(F)(F)F)c3)CC2)c1` [Example 861], the figure is 94.1 nM.
With `Cc1ccc(-n2ccc3c(CN4CCC(c5cccc(NC(=O)C(C)C)c5)CC4)cccc32)cc1C` [Example 862], the inhibitory constant (Ki) was determined as 438 nM.
As for `CC(C)C(=O)Nc1cccc(C2CCN(Cc3cccc4c3ccn4-c3cc(Cl)cc(Cl)c3)CC2)c1` [Example 863], the figure is 269 nM.
As to `CC(C)C(=O)Nc1cccc(C2CCN(Cc3cccc4c3ccn4-c3ccc(Cl)c(Cl)c3)CC2)c1` [Example 864], the Ki came to 292 nM.
As to `CC(C)C(=O)Nc1cccc(C2CCN(Cc3cccc4c3ccn4-c3ccc(F)cc3Cl)CC2)c1` [Example 865], the Ki was 94.6 nM.
As for `CC(C)C(=O)Nc1cccc(C2CCN(Cc3cccc4c3ccn4-c3ccc(F)cc3F)CC2)c1` [Example 866], the figure is 169 nM; as for `CC(C)C(=O)Nc1cccc(C2CCN(Cc3cccc4ccn(-c5cccnc5)c34)CC2)c1` [Example 867], 892 nM; as for `CC(C)C(=O)Nc1cccc(C2CCN(Cc3ccc4cc[nH]c4c3)CC2)c1` [Example 868], 403 nM.
For the molecule `CC(C)C(=O)Nc1cccc(C2CCN(Cc3cccc4c3ccn4-c3ccncc3)CC2)c1` [Example 869], the inhibitory constant (Ki) amounted to 431 nM.
For `CC(C)C(=O)Nc1cccc(C2CCN(Cc3cccc4c3ccn4-c3ccccn3)CC2)c1` [Example 870], the Ki stood at 167 nM.
`CC(C)C(=O)Nc1cccc(C2CCN(Cc3cccc4c3ccn4-c3ccccc3F)CC2)c1` [Example 871]: the Ki stood at 252 nM.
Take `CC(C)C(=O)Nc1cccc(C2CCN(Cc3cccc4c3ccn4-c3ccc(Cl)cc3)CC2)c1` [Example 872]: the inhibition constant (Ki) amounted to 306 nM.
For `CC(C)C(=O)Nc1cccc(C2CCN(Cc3cccc4c3ccn4-c3cccnc3)CC2)c1` [Example 873] the value was 345 nM; for `Cc1cccc(-n2ccc3c(CN4CCC(c5cccc(NC(=O)C(C)C)c5)CC4)cccc32)c1C` [Example 874], 247 nM.
For `CC(C)C(=O)Nc1cccc(C2CCN(Cc3cccc4c3ccn4-c3cccc(F)c3)CC2)c1` [Example 875] the value was 130 nM; for `CC(C)C(=O)Nc1cccc(C2CCN(Cc3cccc4c3ccn4-c3ccccc3C(F)(F)F)CC2)c1` [Example 876], 758 nM; for `CC(C)C(=O)Nc1cccc(C2CCN(Cc3cccc4c3ccn4-c3ccccc3Cl)CC2)c1` [Example 877], 245 nM.
With `Cc1cccc(-n2ccc3cccc(CN4CCC(c5cccc(NC(=O)C(C)C)c5)CC4)c32)c1C` [Example 878], the Ki amounted to 169 nM.
As for `CC(=O)c1cccc(OC(CCCCCN2CCC(c3cccc(NC(=O)C(C)C)c3)CC2)c2ccccc2F)c1` (stereo not drawn) [Example 888], the figure is 19.8 nM; as for `CC(C)C(=O)Nc1cccc(C2CCN(CCCCCC(Oc3ccccc3F)c3ccccc3F)CC2)c1` (stereo not drawn) [Example 889], 8.6 nM.
`CC(C)C(=O)Nc1cccc(C2CCN(CCCCCC(Oc3ccc(F)cc3)c3ccccc3F)CC2)c1` (stereo not drawn) [Example 890]: the Ki came out at 11.1 nM.
With `COc1ccccc1OC(CCCCCN1CCC(c2cccc(NC(=O)C(C)C)c2)CC1)c1ccccc1F` (stereo not drawn) [Example 891], the Ki is 6.5 nM.
As to `COc1ccc(OC(CCCCCN2CCC(c3cccc(NC(=O)C(C)C)c3)CC2)c2ccccc2F)cc1` (stereo not drawn) [Example 892], the inhibitory constant (Ki) turned out to be 17.3 nM.
Turning to `CC(=O)c1ccc(OC(CCCCCN2CCC(c3cccc(NC(=O)C(C)C)c3)CC2)c2ccccc2F)cc1` (stereo not drawn) [Example 893], the Ki was found to be 23 nM.
In the case of `COc1ccc(OC(CCCCCN2CCC(c3cccc(NC(=O)C(C)C)c3)CC2)c2ccccc2F)cc1OC` (stereo not drawn) [Example 894], the Ki came to 41.7 nM.
Turning to `CCOc1ccccc1OC(CCCCCN1CCC(c2cccc(NC(=O)C(C)C)c2)CC1)c1ccccc1F` (stereo not drawn) [Example 895], the Ki is 6.4 nM.
Consider `CC(C)C(=O)Nc1cccc(C2CCN(CCCCCC(Oc3ccc(Br)cc3)c3ccccc3)CC2)c1` (stereo not drawn) [Example 896], for which the inhibition constant Ki worked out at 30.3 nM.
For the molecule `CC(C)C(=O)Nc1cccc(C2CCN(CCCCCC(Oc3ccc(F)cc3)c3ccc(F)cc3)CC2)c1` (stereo not drawn) [Example 897], the Ki came to 6.4 nM.
For `COc1ccc(OC(CCCCCN2CCC(c3cccc(NC(=O)C(C)C)c3)CC2)c2ccccc2)cc1` (stereo not drawn) [Example 898] the value was 33.7 nM; for `CC(C)C(=O)Nc1cccc(C2CCN(CCCCCC(Oc3ccc(Cl)cc3)c3ccc(Cl)cc3)CC2)c1` (stereo not drawn) [Example 899], 18 nM.
As to `CC(C)C(=O)Nc1cccc(C2CCN(CCCCCC(Oc3ccc(Br)cc3)c3ccc(F)cc3)CC2)c1` (stereo not drawn) [Example 900], the inhibitory constant (Ki) is 11.2 nM.
For `CC(C)C(=O)Nc1cccc(C2CCN(CCCCCC(Oc3ccc(Cl)cc3)c3ccc(F)cc3)CC2)c1` (stereo not drawn) [Example 901] the value was 8.2 nM; for `CC(C)C(=O)Nc1cccc(C2CCN(CCCCCC(Oc3ccc(F)cc3)c3ccc(Cl)cc3)CC2)c1` (stereo not drawn) [Example 902], 11 nM.
For `CC(=O)c1cccc(OC(CCCCCN2CCC(c3cccc(NC(=O)C(C)C)c3)CC2)c2ccccc2)c1` (stereo not drawn) [Example 903] the value was 12.2 nM; for `CC(C)C(=O)Nc1cccc(C2CCN(CCCCCC(Oc3ccc(Cl)cc3)c3ccccc3)CC2)c1` (stereo not drawn) [Example 904], 14.2 nM; for `CC(C)C(=O)Nc1cccc(C2CCN(CCCCCC(Oc3ccc(Br)cc3)c3ccc(Cl)cc3)CC2)c1` (stereo not drawn) [Example 905], 5.9 nM.
As to `COc1ccc(OC(CCCCCN2CCC(c3cccc(NC(=O)C(C)C)c3)CC2)c2ccc(Cl)cc2)cc1` (stereo not drawn) [Example 906], the Ki stood at 5.7 nM.
`COc1ccc(OC(CCCCCN2CCC(c3cccc(NC(=O)C(C)C)c3)CC2)c2ccc(F)cc2)cc1` (stereo not drawn) [Example 907]: the Ki worked out at 3.1 nM.
For `CC(=O)c1cccc(OC(CCCCCN2CCC(c3cccc(NC(=O)C(C)C)c3)CC2)c2ccc(F)cc2)c1` (stereo not drawn) [Example 908] the value was 3.7 nM; for `CC(C)C(=O)Nc1cccc(C2CCN(CCCCCC(Oc3ccc(F)cc3)c3ccccc3)CC2)c1` (stereo not drawn) [Example 909], 10 nM; for `CC(=O)c1ccccc1OC(CCCCCN1CCC(c2cccc(NC(=O)C(C)C)c2)CC1)c1ccccc1F` (stereo not drawn) [Example 910], 10.1 nM.
Turning to `CC(C)C(=O)Nc1cccc(C2CCN(CCCCCC(Oc3cc(C(F)(F)F)ccc3F)c3ccc(F)cc3)CC2)c1` (stereo not drawn) [Example 911], the inhibition constant (Ki) is 7.6 nM.
As for `CC(=O)c1cccc(OC(CCCCCN2CCC(c3cccc(NC(=O)C(C)C)c3)CC2)c2ccc(Cl)cc2)c1` (stereo not drawn) [Example 912], the inhibitory constant (Ki) is 5.7 nM.
